Each cell line was assayed with CC(C)(C)c1nc(-c2cccc(NS(=O)(=O)c3c(F)cccc3F)c2F)c(-c2ccnc(N)n2)s1 [Dabrafenib] + CS(=O)(=O)CCNCc1ccc(-c2ccc3ncnc(Nc4ccc(OCc5cccc(F)c5)c(Cl)c4)c3c2)o1 [Lapatinib] (partner 2 µM) (assay: relative viability (nuclei count vs DMSO), 5 days (fraction); higher = more cells survive). Conditions: first compound 0.3 µM.
Procedure, shortened: (§1)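 Lung cancer cell lines, seeded in 1536-well plates, were treated the following day by pin tool with a single drug or with five library-drug doses (not always all listed) in √10 steps on top of a fixed anchor-drug dose. Cells were fixed and nuclei stained in one step after 5 days, and nuclei were counted. Relative viability is the nuclei count for treated wells divided by that for vehicle wells, reported as medians of duplicate plates.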
NCI-H460 was tested, and the relative viability was 0.83. Work on H3255 yielded a relative viability of 0.247. With SK-LU-1 the relative viability was 0.719. For NCI-H23, the relative viability was 1.02.

These cell lines were tested with CC(C)(C)c1nc(-c2cccc(NS(=O)(=O)c3c(F)cccc3F)c2F)c(-c2ccnc(N)n2)s1 [Dabrafenib] + C[C@@H](Oc1cc(-c2cnn(C3CCNCC3)c2)cnc1N)c1c(Cl)ccc(F)c1Cl [Crizotinib] (partner 1 µM) in the same assay as above. Conditions: first compound 0.003 µM.
Procedure, shortened: as §1
EMC-BAC-2 showed a relative viability of 0.859. Work on UMC-11 yielded a relative viability of 0.772. For NCI-H596, the relative viability was 1.48. HCC-827 was tested, and the relative viability was 0.873. COR-L 105 showed a relative viability of 0.843. Work on NCI-H2126 yielded a relative viability of 1.01. Cell Line HCC-44 has a relative viability of 0.769. With NCI-H1651 the relative viability was 0.85. NCI-H1755 showed a relative viability of 0.896. With PC-14 the relative viability was 0.938. HCC-15 gave a relative viability of 0.906. For LU99A, the relative viability was 0.585. Work on EKVX yielded a relative viability of 0.875. For COR-L23, the relative viability was 0.644. In the case of NCI-H1437, the relative viability is reported as 0.935. Work on RERF-LC-KJ yielded a relative viability of 0.845. In the case of NCI-H460, the relative viability is reported as 0.865. With H3255 the relative viability was 0.968. With SK-LU-1 the relative viability was 0.742.

Same assay, conditions: first compound 0.009487 µM
EMC-BAC-2 gave a relative viability of 0.749. UMC-11 gave a relative viability of 0.636. Cell Line NCI-H650 has a relative viability of 0.715. NCI-H596 showed a relative viability of 1.06. HCC-827 gave a relative viability of 0.945. For COR-L 105, the relative viability was 0.987. For NCI-H2126, the relative viability was 1.02. NCI-H647 was tested, and the relative viability was 1.05. LOU-NH91 showed a relative viability of 0.759. In the case of HCC-78, the relative viability is reported as 0.403. With HCC-44 the relative viability was 0.785. In the case of NCI-H1651, the relative viability is reported as 0.875. Cell Line NCI-H1755 has a relative viability of 0.89. HOP-62 showed a relative viability of 0.807. Cell Line PC-14 has a relative viability of 0.867. In the case of A-427, the relative viability is reported as 0.883. In the case of NCI-H1355, the relative viability is reported as 1.05. Work on NCI-H1792 yielded a relative viability of 0.974. In the case of HCC-15, the relative viability is reported as 0.881. LU99A showed a relative viability of 0.525. EKVX was tested, and the relative viability was 1.12. For COR-L23, the relative viability was 0.627. NCI-H1437 showed a relative viability of 0.902. RERF-LC-KJ showed a relative viability of 0.791. For NCI-H1734, the relative viability was 0.702. In the case of BEN, the relative viability is reported as 0.985. Cell Line NCI-H460 has a relative viability of 0.97. For H3255, the relative viability was 1.19. Work on SK-LU-1 yielded a relative viability of 0.989. NCI-H23 gave a relative viability of 0.603.

Same assay, conditions: first compound 0.03 µM
EMC-BAC-2 showed a relative viability of 0.678. For UMC-11, the relative viability was 0.591. Work on NCI-H650 yielded a relative viability of 0.657. NCI-H596 gave a relative viability of 0.86. HCC-827 gave a relative viability of 0.864. For COR-L 105, the relative viability was 0.67. With NCI-H2126 the relative viability was 0.986. NCI-H647 gave a relative viability of 1.04. LOU-NH91 was tested, and the relative viability was 0.717. HCC-78 was tested, and the relative viability was 0.278. For HCC-44, the relative viability was 0.847. In the case of NCI-H1651, the relative viability is reported as 0.859. With NCI-H1755 the relative viability was 0.648. HOP-62 gave a relative viability of 1.05. In the case of PC-14, the relative viability is reported as 0.878. A-427 showed a relative viability of 0.772. NCI-H1355 gave a relative viability of 0.927. NCI-H1792 showed a relative viability of 0.891. Work on HCC-15 yielded a relative viability of 0.832. LU99A was tested, and the relative viability was 0.466. Work on EKVX yielded a relative viability of 0.783. COR-L23 gave a relative viability of 0.633. Work on NCI-H1437 yielded a relative viability of 0.906. RERF-LC-KJ was tested, and the relative viability was 0.769. Cell Line NCI-H1734 has a relative viability of 0.475. Cell Line NCI-H460 has a relative viability of 0.892. Work on H3255 yielded a relative viability of 0.954. In the case of SK-LU-1, the relative viability is reported as 0.769. NCI-H23 was tested, and the relative viability was 0.541.

Same assay, conditions: first compound 0.09487 µM
In the case of EMC-BAC-2, the relative viability is reported as 0.672. UMC-11 gave a relative viability of 0.572. With NCI-H650 the relative viability was 0.515. NCI-H596 was tested, and the relative viability was 0.954. Work on HCC-827 yielded a relative viability of 0.696. In the case of COR-L 105, the relative viability is reported as 0.719. In the case of NCI-H2126, the relative viability is reported as 1.01. NCI-H647 showed a relative viability of 0.976. Cell Line LOU-NH91 has a relative viability of 0.672. HCC-78 showed a relative viability of 0.329. In the case of HCC-44, the relative viability is reported as 0.718. Work on NCI-H1651 yielded a relative viability of 0.785. For NCI-H1755, the relative viability was 0.824. HOP-62 gave a relative viability of 0.913. Work on PC-14 yielded a relative viability of 0.974. Work on A-427 yielded a relative viability of 0.87. NCI-H1792 gave a relative viability of 0.833. HCC-15 showed a relative viability of 0.75. In the case of LU99A, the relative viability is reported as 0.562. For EKVX, the relative viability was 0.702. Work on COR-L23 yielded a relative viability of 0.607. Cell Line NCI-H1437 has a relative viability of 0.896. RERF-LC-KJ was tested, and the relative viability was 0.779. With NCI-H1734 the relative viability was 0.696. For BEN, the relative viability was 0.749. NCI-H460 was tested, and the relative viability was 0.842. H3255 was tested, and the relative viability was 0.873. With SK-LU-1 the relative viability was 0.778. NCI-H23 was tested, and the relative viability was 0.421.

Same assay, conditions: first compound 0.3 µM
Cell Line EMC-BAC-2 has a relative viability of 0.828. UMC-11 was tested, and the relative viability was 0.596. For NCI-H650, the relative viability was 0.551. Cell Line NCI-H596 has a relative viability of 0.932. For HCC-827, the relative viability was 0.942. For COR-L 105, the relative viability was 0.851. Cell Line NCI-H2126 has a relative viability of 1.01. NCI-H647 showed a relative viability of 1.04. For LOU-NH91, the relative viability was 0.757. In the case of HCC-78, the relative viability is reported as 0.362. HCC-44 was tested, and the relative viability was 0.794. With NCI-H1651 the relative viability was 0.786. In the case of NCI-H1755, the relative viability is reported as 0.884. HOP-62 showed a relative viability of 0.805. PC-14 was tested, and the relative viability was 0.982. A-427 showed a relative viability of 1.03. NCI-H1355 showed a relative viability of 1.03. NCI-H1792 gave a relative viability of 0.873. For HCC-15, the relative viability was 0.827. For LU99A, the relative viability was 0.484. With EKVX the relative viability was 1.01.

— the supplement of paper PMC10307832
